The subject of the experiment is kinases. Description: Streamlined CETSA / dMS workflow with staurosporine. The class given is binding. To be noted: staurosporine treated vs untreated samples. The source says:
Initial experiments were designed to employ the ATP inhibitor staurosporine. Staurosporine is well documented as binding several different kinases, and so offers an a priori known binding event for study and method workup. The workflow for CETSA was streamlined. These improvements are based on two advantages: the use of factory made long heated columns for excellent chromatographic, and therefore sample to sample reproducibility, and the cloud computing platform, Chorus, which allows for the alignment and quantification of hundreds of thousands of mass spectrometric signals without the need to first identify said signals, see U.S. Pat. No. 6,906,320 “Mass Spectrometry Data Analysis Techniques,” incorporated herein by reference.
In the staurosporine analysis, the dMS workflow detected 270,822 features that were associated with 108,594 isotope groups. […] An important and distinguishing feature of the dMS workflow is that results are ranked on the basis of the quantitative data, and significant features may then be identified directly by reanalysis of the sample and acquisition of a MS2 spectrum with a retention time and m/z that matches the features of interest. This quantify first, identify second strategy greatly enhances the depth and precision of proteomic analysis compared to workflows that emphasize peptide identification rates. […]

Turning to `CN[C@@H]1C[C@H]2O[C@@](C)([C@@H]1OC)n1c3ccccc3c3c4c(c5c6ccccc6n2c5c31)C(=O)NC4` [staurosporine], the “Features at significance lower than p<0.0001, drug treated versus vehicle, that belong to kinases” value was 13 out of 16 belonged to kinases.

(Values after patent publication US11519913B2, “Metabolic disorder target” (University of Pittsburgh—Of the Commonwealth System of …, priority 2016, dated 2022).)
